Converted amounts (≈) assume the structure as drawn.

Data set [1] is described as follows: Drug concentration in overnight fasted Sprague-Dawley rat spinal cord with streptozotocin induced diabetic peripheral neuropathic mechanical allodynia at 3 mg/kg, po measured at 5.5 hrs post dose. Format: ADME, organism-based. The settings on record: read-out: Ct.
Another data set deals with Rattus norvegicus. In words: Analgesic activity in streptozotocin induced diabetic peripheral neuropathic mechanical allodynia in overnight fasted Sprague-Dawley rat model assessed as efficacy at 0.3 mg/kg, po measured at 5.5 hrs post dose. The format is functional.
Data set [2] can be described thus: Solubility of the compound in citrate at pH 4.4 using crystalline form of sample. Format: physicochemical.

What is called solubility is the concentration that dissolves in the medium under given conditions. A high value points to a readily soluble substance. Take `CC(C)C[C@](C)(N)COc1ccc(-c2ccnc(C(F)F)c2)nc1C(F)F` [PILAVAPADIN]: in data set [1], the concentration at 5.5 h worked out at 2370 nM. Besides, the Efficacy in the data set on Rattus norvegicus was found to be 20%. In data set [2], this compound gave a solubility of 1400 µg/mL (≈ 3.63 mM).

These data come from ChEMBL document CHEMBL5046296 (J Med Chem, 2022).
